Results taken from patent publication US11938164B2, “Exosome-based cancer assays” (TRUSTEES OF BOSTON UNIVERSITY, priority 2021, dated 2024).

Experiments:
[1] = system: MCF-7 cells; assay: EMT/CSC gene expression (RT-PCR, PCR array, IPA) in MCF-7 cells treated with adipocyte exosomes; assay type: cell-based, human; conditions: MCF7 cells; compared to control EVs
Procedure: RNA was isolated from cells using RNeasy Plus Mini Kit (74136, Qiagen). From each sample, 1 μg of RNA was used to prepare 20 μL cDNA using QuantiTect Reverse Transcription Kit (Qiagen, 205313). Human RT2 Profiler™ PCR Array, including Epithelial to Mesenchymal Transition (EMT) (PAHS-090Z) and Cancer Stem Cell (PAHS-176ZC) arrays, were purchased from Qiagen. Each cDNA sample (102 μL comprised of 1 μg RNA) was mixed with 1,350 μL RT2 SYBR Green ROX qPCR Mastermix (Qiagen, 330522) and 1,248 μL RNAse-free water. A total volume of 2,700 μL was mixed by vortexing and transferred to a reservoir. Then, an 8 channel pipettor was used to take aliquots of reaction mix from the reservoir, to distribute 25 μL into each well of the array. PCR reactions were performed and results were analyzed using a 7500 Fast Real-Time PCR instrument.
All Ct values of the genes were normalized to the respective ACTB gene (delta Ct). […] For the control groups, delta.delta Ct was calculated using this formula: ΔΔCt=ΔCt (C1 or C2 or C3)—ΔCt (Control average). Then, fold-change was calculated using 2∧−ΔΔCt, (2 to the power of negative ΔΔCt). Next, the Z score was calculated based on this formula: Z score=(x-mean)/SD, where X is the fold-change. […]
To predict disease and function, and downstream pathways, data were analyzed through the use of Ingenuity Pathway Analysis, IPA (QIAGEN Inc.). […]

[2] = system: PD-L1; assay: Flow cytometry of PD-L1 on DU145 cells; assay type: cell-based, human; conditions: MZ-1 50 nM, JQ1 400 nM
Procedure: Single-cell suspensions were washed after collection and stained in ice-cold Ca^+2/Mg^+2-free PBS with a viability dye (Zombie NIR, BioLegend) for 20 min at 4° C. in the dark. Cell suspensions were then washed twice with ice-cold flow cytometry buffer (Ca^+2/Mg^+2-free PBS, supplemented with 2% FBS and 2 mM EDTA). Cell suspensions were then stained for PD-L1 (PE-conjugated, BD Biosciences). All cell suspensions were washed twice in ice cold flow cytometry buffer before analysis. Unstained cells and single-stained controls were used to calculate flow cytometry compensation. Data acquisition (typically 1 million events) was performed on a BD LSRII instrument at the Boston University Flow Cytometry Core Facility. Data analysis was carried out using FlowJo Software (version 10.6.1, Tree Star).

[3] = system: DU145 cells; assay: RT-PCR of SNAI1 and CD274 in DU145 cells after T2D exosomes plus JQ1 or MZ-1; assay type: cell-based, human; conditions: MZ-1 50 nM, JQ1 400 nM
Procedure: (FIG. 19A) Expression of SNAI1 and CD274 genes in DU145 cells measured by RT-PCR of cellular RNA after exosome treatment. T2D exosomes (109; T2D Exo) were compared to media only control exosomes (Control), or T2D Exo+JQ1 or MZ1. (JQ1 is a pan-BET inhibitor (400 nM) and MZ-1 is a BRD4-selective degrader (50 nM)). (FIG. 19B) Expression of PD-L1 was measured by flow cytometry after treatments. One million events were analyzed by Flow-Jo and presented as overlaid histograms (control, red trace; experimental, black trace). (FIG. 19C) Flow cytometry data of FIG. 19B were quantified with PD-L1 as percent of parent population. The experiment was conducted in triplicate with differences between means represented as bar graphs. Data were analyzed by two-way ANOVA with statistical significance presented as: ****, P<0.0001 (TGFB, TGF-β positive control at 5 ng/mL for SNAI1 induction; IFNgamma, interferon-γ positive control at 5 ng/mL for CD274 induction).
Procedures were as previously described. Briefly, total RNA was extracted from tumor cells using an RNAeasy Kit (Qiagen). Reverse transcription reactions were performed with 1 μg of total RNA with the QuantiTect Reverse Transcription kit (Qiagen). Gene expression was measured using TaqMan™ master mix (Thermofisher, 4369510) and human gene probes as follows: SNAI (Hs00195591_m1), SNA2 (Hs00950344_m1), CDH1 (Hs01023895_m1), ACTB (Hs00357333_g1), CD274 (encodes PD-L1, Hs01125301_m1), CD155 (encodes PVR or TIGIT ligand, Hs00197846_m1), VIM (Hs00958111_m1), TGFB1 (Hs00998133_m1), and AHNAK (Hs01102463_m1).

[4] = system: 4T1 cells; assay: Transwell migration assay with 4T1 cells; assay type: cell-based, murine; conditions: 50 nM MZ-1
Procedure: FIGS. 9A-9D depict EMT induction in murine 4T1 cells treated with EVs from IS vs IR murine adipocytes. Murine 3T3-L1 adipocytes were differentiated from pre-adipocyte fibroblasts as published (24), treated with 250 pM murine TNFα overnight, as specified to induce insulin resistance (9), then adipocyte conditioned media was used as the source of EVs. (FIG. 9A) 4T1 cells were treated for 3 days with EVs from IS or IR adipocytes, vs. media control EVs, then cells were fixed for immunohistochemistry. Vimentin and E-cadherin, as mesenchymal or epithelial markers respectively, were visualized by fluorophore-conjugated primary anti-mouse antibodies, with phalloidin stain for cytoskeletal structure and DAPI counterstain for DNA. Bar, 10 μm. (FIG. 9B) RT-PCR validation of two selected EMT genes, induced by EVs. (FIG. 9C) Transwell migration assay with 4T1 cells exposed to IS vs IR EVs, or IR treated with 50 nM MZ-1 (25) to inhibit BRD4 and block migration (18,24). (FIG. 9D) Quantitation of B. (n=3; ***, P<0.005).

[5] = system: BRD2, BRD3 and BRD4; conditions: DU145 cells, cited from earlier work

With TGF-β the “transcription of ZEB1 and SNAI2 readout genes” value [1] was “Induction”.

In the case of Cc1sc2c(c1C)C(c1ccc(Cl)cc1)=N[C@@H](CC(=O)OC(C)(C)C)c1nnc(C)n1-2 [JQ1], the “PD-L1 surface protein induced by T2D exosome treatment” value [2] is reported as “inhibited”, the “expression of SNAI1 induced by T2D plasma exosomes” value [3] is reported as “not able to reduce expression below the BRD4-selective level” and the “transcription of CD274 induced by T2D plasma exosomes” value [3] is reported as “inhibit transcription to below baseline”.

In the case of Cc1ncsc1-c1ccc(CNC(=O)[C@@H]2C[C@@H](O)CN2C(=O)[C@@H](NC(=O)COCCOCCOCCNC(=O)C[C@@H]2N=C(c3ccc(Cl)cc3)c3c(sc(C)c3C)-n3c(C)nnc32)C(C)(C)C)cc1 [MZ-1], the “4T1 migration provoked by exosomes from IR adipocytes” value [4] is reported as “effectively ablated”, the “PD-L1 surface protein induced by T2D exosome treatment” value [2] is reported as “inhibited” and the “expression of SNAI1 induced by T2D plasma exosomes” value [3] is reported as “inhibited expression”. The “transcription of CD274 induced by T2D plasma exosomes” value [3] was “same inhibitory effect”, the “elimination of BET proteins, low concentration” value ([5]; 50 nM) was “selective to eliminate BRD4 protein while preserving BRD2 and BRD3” and the “elimination of BET proteins, high doses” value ([5]; 400 nM) was “eliminate all three somatic BET proteins”.
